Source: US6759544B2, “Antimicrobially active acesulfame complexes, process for their preparation and their use” (Nutrinova Nutrition Specialties & Food Ingredients GmbH, priority 2001, dated 2004)

Assays:
Assay type in all cases: cell-based
[1] = test system: Actinomyces odontolyticus (ATCC 17982); test: Minimum inhibitory concentration, Actinomyces odontolyticus
Experimental: (§1) Method for Determining the Minimum Inhibitory Concentration
(§2) The samples, to determine the minimum inhibitory concentration, are dissolved in WSH (water of standardized hardness) and mixed with twice-concentrated Caso-Bouillon pH 5.5. After inoculation with the test organisms, the solutions of the test organisms Streptococcus mutans (ATCC 25175) and Actinomyces odontolyticus (ATCC 17982) were overlayered with paraffin and incubated for a period of three days at a temperature of 37° C.
(§3) The solution of the test organism Staphylococcus aureus (ATCC 6538) was incubated for two days at 37° C. The samples were then streaked onto Caso agar and incubated for two days at 37° C.

[2] = test system: Streptococcus mutans (ATCC 25175); test: Minimum inhibitory concentration, Streptococcus mutans
Experimental: as §1, §2, §3

[3] = test system: Staphylococcus aureus (ATCC 6538); test: Minimum inhibitory concentration, Staphylococcus aureus
Experimental: as §1, §2, §3

[4] = Actinomyces odontolyticus (ATCC 17982), Caso-Bouillon pH 5.5, overlayered with paraffin, three days at 37° C.
[5] = Streptococcus mutans (ATCC 25175), Caso-Bouillon pH 5.5, overlayered with paraffin, three days at 37° C.
[6] = Staphylococcus aureus (ATCC 6538), Caso-Bouillon pH 5.5, two days at 37° C.

CC1=CC(=O)[N-]S(=O)(=O)O1.[Ag+] [Ag(acesulfame).0.25H2O, Acesulfame-Silver Complex]
Minimum inhibitory concentration [1, 4]: 18.31 mM | Minimum inhibitory concentration [2, 5]: 18.31 mM | Minimum inhibitory concentration [3, 6]: 3.65 mM

O=[N+]([O-])[O-].[Ag+] [AgNO3, silver(I) nitrate]
Minimum inhibitory concentration [1, 4]: 5.91 mM | Minimum inhibitory concentration [2, 5]: 5.91 mM | Minimum inhibitory concentration [3, 6]: 5.91 mM

CCCCCCCCCCCCCCCC[n+]1ccccc1.O.[Cl-] [Cetylpridinium chloride.H2O, cetylpyridinium chloride.H2O]
Minimum inhibitory concentration ([1]; pH 5.5): 0.00279 mM | Minimum inhibitory concentration ([2]; pH 5.5): 0.00279 mM | Minimum inhibitory concentration ([3]; pH 5.5): 0.13966 mM

CC1=CC(=O)[N]([Zn]([OH])([OH])[N]2C(=O)C=C(C)OS2(=O)=O)S(=O)(=O)O1 [Zn(acesulfame)2.2H2O, Acesulfame-Zinc Complex]
MIC ([1]; Schaalia odontolytica, ATCC17982, 72 h, Actinomyces odontolyticus (ATCC 17982), Caso-Bouillon pH 5.5, overlayered with paraffin, three days at 37° C.): 11.8 mM | MIC ([2]; ATCC25175, 72 h, Streptococcus mutans (ATCC 25175), Caso-Bouillon pH 5.5, overlayered with paraffin, three days at 37° C.): 23.7 mM | MIC ([3]; ATCC6538, 48 h, Staphylococcus aureus (ATCC 6538), Caso-Bouillon pH 5.5, two days at 37° C.): 23.7 mM

O.O.O.O.O.O=S(=O)([O-])[O-].[Cu+2] [CuSO4.5H2O, copper(II) sulfate pentahydrate]
Minimum inhibitory concentration ([1]; pH 5.5): 20.13 mM | Minimum inhibitory concentration ([2]; pH 5.5): 4.01 mM | Minimum inhibitory concentration ([3]; pH 5.5): 20.13 mM

CC1=CC(=O)[N-]S(=O)(=O)O1.CCCCCCCCCCCCCCCC[n+]1ccccc1 [Cetylpyridinium(acesulfame), Acesulfame-Cetylpyridinium Complex]
Minimum inhibitory concentration ([1]; pH 5.5): 0.00214 mM | Minimum inhibitory concentration ([2]; pH 5.5): 0.00214 mM | Minimum inhibitory concentration ([3]; pH 5.5): 0.10703 mM

O.O.O.O.O.O.O.O=S(=O)([O-])[O-].[Zn+2] [ZnSO4.7H2O, zinc(II) sulfate heptahydrate]
Minimum inhibitory concentration ([1]; pH 5.5): 17.5 mM | Minimum inhibitory concentration ([2]; pH 5.5): 17.5 mM | Minimum inhibitory concentration ([3]; pH 5.5): 17.5 mM
